≈ marks a conversion by molar mass, not a printed value. Entries after “also recorded” stand apart in the source; their conditions may differ.
Legend:
[1] = tested on: HEK293 cells; assay: Treatment of HEK293 cells with MitoBloCK-6; type: cell-based; conditions: unpublished data
Experimental: For microscopy experiments, HeLa or HEK293 cells were transiently transfected with Su9-EGFP (Lipofectamine, Invitrogen) at 80% confluency. 12 hours post transfection, cells were co-labeled with Mitotracker red CMXRos (Invitrogen) and visualized with a microscope (Axiovert 200M Carl Zeiss) using a Plan-Fluor 63× oil objective. Images were acquired at room temperature with a charge-coupled device camera (ORCA ER, Hamamatsu Photonics) controlled by Axiovision software (Carl Zeiss). Image files were processed by Photoshop software (Adobe). […] For cyt c release assays, a cell fractionation kit (MitoSciences) was used. Briefly, HeLa or HEK293 cells were grown in 10 cm^2 dishes to 80% confluency and then cells were treated with DMSO or MitoBloCK-6 in complete medium for 12-16 h. […] Cells were fractionated to obtain cytosolic and mitochondrial fractions; 100 μg of each fraction was analyzed by SDS-PAGE. Blots were probed with ApoTrack cyt c apoptosis antibody cocktail (MitoSciences).

[2] = tested on: tim9-3 mutant; assay: Yeast growth inhibition (MIC50), tim9-3 mutant; type: cell-based; conditions: Saccharomyces cerevisiae; disrupted for prd5 and snq2
[3] = tested on: tim10-1 tim9S suppressor strain; assay: Yeast growth inhibition (MIC50), tim10-1 tim9S suppressor strain; type: cell-based; conditions: Saccharomyces cerevisiae; disrupted for prd5 and snq2
[4] = tested on: tim10-1 tim9S mitochondria; assay: Respiration (oxygen electrode) of tim10-1 tim9S mitochondria; type: biochemical, yeast; conditions: NADH; 25 μM MitoBloCK-1; CCCP as control
Experimental: Oxygen consumption of […] mitochondria was measured using methods previously described (8). Briefly, purified […] mitochondria aliquots (25 mg/mL) were thawed on ice and tested within 2 hours. A Clark-type oxygen electrode in a stirred, thermostatically controlled 1.5-ml chamber at 25° C. (Oxytherm; Hansatech) facilitated measurement. […] Consumption rate was monitored for approximately 2 min.

[5] = tested on: WT mitochondria; assay: In vitro import of AAC into wild-type mitochondria; type: biochemical, yeast
Experimental: Prior to import into purified mitochondria, ^35S-methionine and cysteine labeled proteins were generated with TNT Quick Coupled Transcription/Translation kits (Promega) and plasmids carrying the gene of interest. Transcription of genes was driven by either a T7 or SP6 promoter. Import reactions were conducted according to established methods. After frozen mitochondria aliquots were thawed and added to the import buffer at a final concentration of 100 μg/mL, drug or DMSO vehicle was added as indicated. A final vehicle concentration of 1% was used in all experiments. Following 15 minute incubation at 25° C., import reactions were initiated by the addition of […] of translation mix. Aliquots were removed at intervals during the reaction timecourse and import was terminated with either cold buffer, 25 μg/mL trypsin, or a combination of both. If trypsin was added to digest unimported precursor protein, soybean trypsin inhibitor (STI) was subsequently added in excess after 15 minute incubation on ice. After a final recovery of by centrifugation (8,000×g, 5 minutes), mitochondria were disrupted in Laemmli sample buffer. Imports of membrane proteins (AAC, PiC, Tom40, Tim22, and Tim23) included a carbonate extraction step to remove proteins that had not inserted into the membrane (Koehler C M, et al. (1998), Science 279:369-373). […]

[6] = tested on: tim10-1 mutant; assay: Yeast growth inhibition (MIC50), tim10-1 mutant; type: cell-based; conditions: Saccharomyces cerevisiae, read-out: MIC50 that inhibited growth of the tim10-1 mutant
Experimental: The screen was conducted with an integrated robotic system with plate scheduling. Briefly, diversity oriented commercial libraries of drug-like compounds from Chembridge and Asinex were screened against the tim10-1 strain at a concentration of approximately 10 μM. The screen encompassed a total of approximately 50,000 compounds dissolved in DMSO. Yeast in YPD medium was aliquoted into 384-well plates followed by compound addition with robotic pinning into the assay wells. DMSO was the vehicle for the small molecules, and several plate columns that contained only 1% DMSO were included as a control with the pinned compounds. As a negative control for growth, wells pinned with the mitochondrial uncoupler CCCP, which caused lethality, were also included. After 2 days of incubation at 25° C., cultures in each well were measured for optical density (O.D.) as a measure of growth. A typical reading for the positive control was OD600=0.8. […]
A primary screen was performed using freshly streaked tim10-1 diluted in YPD to an OD600 of approximately 0.0002 and kept on ice throughout the screening run. […] Each plate was shaken in a Beckman orbital shaker to resuspend settled cells, and the OD600 in each well was read by a Wallac Victor plate reader (Perkin Elmer). The top 600 growth inhibitory compounds were determined and assembled into two plates. […]

[7] = tested on: Tim9-Tim10 complex; assay: Crosslinking and immunoprecipitation of AAC with Tim9; type: biochemical, yeast; conditions: 25 μM MitoBloCK-1; BMH crosslinker
Experimental: Crosslinking and immunoprecipitation experiments were derived from procedures previously utilized (3) with the inclusion of MitoBloCK-1 or DMSO. Following import, a portion of the reaction was subjected to crosslinking with 0.5 mM bis-maleimidohexane (BMH) for 30 minutes on ice. After quenching crosslinking reactions with 1 mM β-mercaptoethanol, a fraction of each sample was subjected to immunoprecipitation with polyclonal antibodies against either Tim9, Tom22, or Tom40. For each immunoprecipitation, 20 μL of antisera was bound to […], of protein A-sepharose slurry according to established protocols (Murphy M P, et al., (2001), Mol Cell Biol 21:6132-6138).

| Structure (SMILES) | morphology and viability in HEK293 cells [1] | MIC50 [2] [µM] | MIC50 [3] [µM] | rate of respiration [4] | import of AAC into WT mitochondria [5] | MIC50 [6] [µM] | crosslinked Tim9-AAC product after immunoprecipitation [7] |
| --- | --- | --- | --- | --- | --- | --- | --- |
| Oc1c(Cl)cc(Cl)cc1/C=N/c1ccc(Nc2ccccc2)cc1 [MitoBloCK-6] | showed similar results |  |  |  |  |  |  |
| NC(=S)N/N=C/c1c(O)c(Br)cc2oc3c(c12)CCCC3 [MitoBloCK-1] |  | 11 (≈ 4.05 µg/mL) | 10 (≈ 3.68 µg/mL) | did not significantly alter the rate of respiration | did not inhibit import; also recorded: does not inhibit AAC import | ~1 (≈ 0.368 µg/mL) | decreased |
